Results reported in US20120010075A1 (priority 2009, published 2012).
Read-outs that look alike come from different tables or passages of the source.

How the values were obtained:
[1] = system: Leptosphaeria nodorum (LEPTNO); test: In vitro fungitoxicity of hydrazones with and without copper towards Leptosphaeria nodorum (Example 26); type: cell-based; conditions: 72 h at 25° C.; for inhibition of growth at 0.05 µg/mL: Parastagonospora nodorum, 72 h, read-out: LEPTNO % Inhn. Minus Copper Observed
Phytophthora infestans = type: in vivo, Phytophthora infestans on tomato; conditions: applied 24 h before inoculation, assessed 7 days after inoculation
[2] = copper-minus medium, test compound Concn. 0.05 μg/mL
[3] = copper-plus medium (CuCl2 10 μM), test compound Concn. 0.05 μg/mL
[4] = hydrazone 50 ppm with 50 μM CuCl2.2H2O, tomato late blight
[5] = compound 0.05 μg/mL, copper-minus medium
[6] = compound 0.05 μg/mL, copper-plus medium (CuCl2.2H2O)
[7] = hydrazone 50 ppm + 50 μM CuCl2.2H2O, tomato

SMILES	inhibition of growth at 0.05 µg/mL [1, 2]	LEPTNO % Inhn. Plus Copper Observed [1, 3]	melting point	TLB % Control (Phytophthora infestans; [4])	inhibition of growth at 0.05 µg/mL [1, 5]	LEPTNO % Inhn. Plus Copper Observed [1, 6]	TLB % Control (Phytophthora infestans; [7])	LEPTNO % Inhn. Minus Copper Observed [1, 5]
C/C(=N\NC(=O)c1ccc(C(F)(F)F)cc1)c1cc(C(F)(F)F)ccc1O [Example 536]	21.1%	93.4%	228 to 234 °C	24.0%				
O=C(N/N=C/c1cc(Cl)cc(C(F)(F)F)c1O)c1cccc(Cl)c1 [Example 380]	36.1%	98.3%	228 to 229 °C	100.0%				
COc1ccc(/C(C)=N/NC(=O)c2cccc(C)c2)c(O)c1 [Example 282]			184 to 185 °C		0%	94.7%	52.0%	
C/C(=N\NC(=O)c1ccc(C)cc1)c1cc(Cl)ccc1O [Example 507]	7.6%	97.0%	221 to 228 °C	66.0%				
O=C(N/N=C/c1cc(Br)ccc1O)c1cc(Cl)ccc1Cl [Example 186]			196 to 202 °C		0%	97.6%	61.8%	
O=C(N/N=C/c1cc(C(F)(F)F)cc(Cl)c1O)c1cccc(F)c1 [Example 323]	16.1%	98.1%	210 to 212 °C	100.0%				
COc1ccc(/C(C)=N/NC(=O)c2cccc(Cl)c2)c(O)c1 [Example 285]			212 to 214 °C		3.4%	97.5%	51.0%	
N#Cc1cc(Br)c(O)c(/C=N/NC(=O)c2ccccc2)c1 [Example 306]	0%	95.2%	290 to 291 °C	35.0%				
O=C(N/N=C/c1c(Cl)ccc(Cl)c1O)c1cccc(F)c1 [Example 367]	13.1%	97.9%	203 to 209 °C	95.0%				
COc1ccc(C(=O)N/N=C(\C)c2ccc(Cl)cc2O)cc1 [Example 459]	7.3%	96.9%	262 to 263 °C	20.0%				
O=C(N/N=C/c1cc(Br)cc(F)c1O)c1ccccc1O [Example 409]	7.9%	96.3%	297 to 299 °C	98.0%				
Cc1ccc(C(=O)N/N=C/c2cc(Br)cc(Br)c2O)c(C)c1 [Example 32]			192 to 194 °C			94.4%	74.6%	0.0%
Cc1ccc(O)c(/C=N/NC(=O)c2ccccc2)c1 [Example 235]			192 to 193 °C		0%	96.3%	80.0%	
COc1ccc(O)c(/C(C)=N/NC(=O)c2cccc(C)c2)c1 [Example 263]			131 to 141 °C		4.1%	97.9%	14.0%	
COc1ccc(/C(C)=N/NC(=O)c2ccccc2C)c(O)c1 [Example 281]			170 to 172 °C		1.4%	98.4%	67.0%	
O=C(N/N=C/c1ccc(Cl)c(Cl)c1O)c1cccc(Cl)c1 [Example 358]	12.7%	98.3%	219 to 222 °C	100.0%				
C/C(=N\NC(=O)c1c(C)cccc1O)c1cc(Cl)cc(Cl)c1O [Example 479]	0%	97.5%	245 °C	97.0%				
C/C(=N\NC(=O)c1ccc(C(F)(F)F)cc1)c1cccc(Cl)c1O [Example 501]	0.5%	98.0%	250 to 256 °C	89.0%				
COc1ccc(/C(C)=N/NC(=O)c2cccc(C)c2)c(O)c1OC [Example 553]	0%	93.2%	158 to 162 °C	88.0%				
C/C(=N\NC(=O)c1ccc(C(F)(F)F)cc1)c1ccc(Cl)cc1O [Example 461]	3.4%	96.7%	244 to 245 °C	54.0%				

SMILES	inhibition of growth at 0.05 µg/mL [1, 2]	LEPTNO % Inhn. Plus Copper Observed [1, 3]	melting point	TLB % Control (Phytophthora infestans; [4])	inhibition of growth at 0.05 µg/mL [1, 5]	LEPTNO % Inhn. Plus Copper Observed [1, 6]	TLB % Control (Phytophthora infestans; [7])	LEPTNO % Inhn. Minus Copper Observed [1, 5]
COc1ccc(Br)c(/C=N/NC(=O)c2ccccc2)c1O [Example 243]			187 to 189 °C		5.3%	96.7%	86.4%	
COc1cc(O)c(/C(C)=N/NC(=O)c2ccccc2O)c(OC)c1 [Example 586]	0%	87.3%	182 to 199 °C	31.0%				
C/C(=N\NC(=O)c1ccccc1)c1cc(Br)cc(Br)c1O [Example 539]	1.6%	98.0%	242 to 245 °C	100.0%				
O=C(N/N=C/c1c(Cl)ccc(Cl)c1O)c1ccccc1O [Example 372]	15.1%	97.4%	260 to 262 °C	98.0%				
O=C(N/N=C/c1cccc(Cl)c1O)c1cccc([N+](=O)[O-])c1 [Example 429]	10.4%	97.4%	236 to 239 °C	94.0%				
Cc1cccc(/C=N/NC(=O)c2ccccc2)c1O [Example 232]			186 to 188 °C		2.3%	97.5%	57.6%	
N#Cc1cccc(C(=O)N/N=C/c2cc(Cl)cc(Cl)c2O)c1 [Example 309]	5.5%	97.4%	252 to 271 °C	74.0%				
C/C(=N\NC(=O)c1ccccc1O)c1cccc(Cl)c1O [Example 503]	5.2%	97.0%	283 to 287 °C	66.0%				
COc1ccc(/C(C)=N/NC(=O)c2ccc(Cl)cc2)c(O)c1OC [Example 557]	13%	95.7%	230 to 235 °C	90.0%				
CCc1ccc(C(=O)N/N=C/c2cc(Cl)cc(Cl)c2O)cc1 [Example 260]			286 to 289 °C		11.2%	97.1%	81.0%	
Cc1ccc(C(=O)N/N=C/c2ccc(Cl)c(Cl)c2O)cc1 [Example 355]	19.6%	89.8%	254 to 256 °C	87.0%				
O=C(N/N=C/c1cc(Cl)ccc1O)c1ccc([N+](=O)[O-])cc1 [Example 12]			259 to 262 °C		0.5%	97.4%	94.0%	
O=C(N/N=C/c1cc(Cl)cc(Br)c1O)c1ccc(C(F)(F)F)cc1 [Example 164]			250 to 251 °C		10.8%	98.6%	96.5%	
O=C(N/N=C/c1c(Cl)ccc(Cl)c1O)c1ccccc1C(F)(F)F [Example 373]	0%	97.3%	221 to 222 °C	90.0%				
COc1ccc(/C(C)=N/NC(=O)c2cccc(Cl)c2)c(O)c1OC [Example 556]	7.7%	95.9%	194 to 201 °C	75.0%				
C/C(=N\NC(=O)c1ccccc1C)c1cc(F)cc(F)c1O [Example 573]	2.4%	98.4%	186 to 188 °C	93.0%				
O=C(N/N=C/c1cc(Cl)cc(Cl)c1O)c1cccc(C(F)(F)F)c1 [Example 249]			165 to 169 °C		27.8%	95.8%	100.0%	
O=C(N/N=C/c1cccc(C(F)(F)F)c1O)c1cccc(Cl)c1 [Example 347]	13.8%	98.4%	185 to 187 °C	97.0%				
O=C(N/N=C/c1cc(C(F)(F)F)cc(C(F)(F)F)c1O)c1ccccc1C(F)(F)F [Example 341]	1.2%	88.9%	210 to 214 °C	63.0%				
Cc1ccc(C(=O)N/N=C/c2cc(Cl)cc(C(F)(F)F)c2O)cc1 [Example 377]	29.9%	97.6%	276 to 278 °C	100.0%				
